Test [1] has as its target T1, TDP1 (Homo sapiens (Human), UniProt Q9NUW8). The test can be described thus: gel-based TDP1 fluorescence assay of unpurified oxime libraries at 100 μM. Type of test: biochemical. As to conditions: 100 μM in DMSO, oximes without purification. On the procedure:
The oximes were evaluated by gel-based TDP1 fluorescence assay in a concentration of 100 μM in DMSO. The fluorescence of DMSO blank vial was set as 0 and the fluorescence for the reference without TDP1 was set as 100%. Preparation: A mixture of aminooxy-containing 105 or 106 (10 μL, 30 mM in DMSO), aldehydes M1-T12 (10 μL, 30 mM in DMSO) and acetic acid (10 μL, 150 mM in DMSO) were agitated at room temperature overnight. Oximes 5-M1-T12 or 6-M1-T12 (30 uL, 10 mM in DMSO) were afforded.
Two set of oximes 105-X and 106-Y (XZ700-M1-T12, XZ699-M1-T12) ([…], 10 mM in DMSO) were prepared about 240 each starting from aminooxy-containing 105 (XZ700) or 106 (XZ699) based on the following method. A mixture of aminooxy-containing 105 or 106 (10 μL, 30 mM in DMSO) with about 240 aldehydes M1-T12 (10 μL, 30 mM in DMSO) (Table 4) separately in the present of acetic acid (10 μL, 150 mM in DMSO) were agitated at room temperature overnight in three 96-well plates in parallel. The formed oximes 105-M1 to 105-T12 and 106-M1 to 106-T12 (30 uL, 10 mM in DMSO) were diluted to 100 μM in DMSO and evaluated by gel-based TDP1 fluorescence assay. The fluorescence of the gel band of DMSO blank vial was set as 0 and the fluorescence for the reference gel band without TDP1 was set as 100%. […] Among them, with same aldehyde structures D1 and P3, both oximes 105-series (105-D1, 105-P3) and 106-series (106-D1, 106-P3) show great (>90%) TDP1 inhibition. […] To confirm the inhibitions, we have further evaluated the purified lead oximes by HPLC. (Table 7; FIG. 9)

In test [2] the target is T1, TDP1. The experiment in a line: TDP1 gel-based in vitro fluorescence assay. The format is biochemical. As to conditions: for inhibition of TDP1, primary screen: 111 μM, preincubation with TDP1 at room temperature overnight; for selectivity compared with TDP2, secondary screen: preincubation overnight at room temperature; for inhibition, secondary screen: preincubation with TDP overnight at room temperature.

The target of test [3] is T2, TDP2 (Homo sapiens (Human), UniProt O95551). The test can be described thus: gel-based TDP2 fluorescence assay in vitro. The format is biochemical. Particulars: for inhibition of TDP2, primary screen: 111 μM, preincubation with TDP2 at room temperature overnight.
The subject of test [4] is human colon cancer cell line HCT116. The experiment in a line: Synergistic effect with camptothecin (CPT) based on cell viability. Particulars: list in description. The protocol:
The synergistic effects of the TDP1 inhibitors with CPT were tested in human colon cancer cell line HCT116 based on cell viability (Table 3, FIGS. 2-5). Cells were first seeded in a 384-well black-clear plate until 30% confluency and then incubated with a serial dilution of CPT at the range of 0-100 nM in the present or the absence of TDP1 inhibitors for 72 h at 37° C. Viable cell numbers were counted from the brightfield images taken by Biotek Cytation 5 (FIGS. 2-3). Fractional affect (Fa) and combination index (Ci) were analyzed with CompuSyn software. Synergistic scores of each TDP1 inhibitors were calculated and collected based on the data analysis from SynergyFinder (FIG. 4). […]

For test [5], the target named is T2, TDP2. The test can be described thus: TDP2 degrading activity as stated in the description. Particulars: list in description.
The target of test [6] is T1, TDP1. The test can be described thus: Degradation assay (western blotting) of TDP1 in HCT116 and HEK293 cells. The format is cell-based. The protocol:
The degradation effect of the TDP1 inhibitors on TDP1 in human colon cancer cell line HCT116 and embryonic kidney cell line HEK293 were studied. Cells were first seeded in a 6-well plate until 60-80% confluency and then incubated with a serial dilution of TDP1 inhibitors at the range of 25-200 μM for 24-72 h at 37° C. […] Samples were then sonicated at 30% for 10 s and centrifuged for 15 min at 15000 rpm at 4 Celsius. Supernatant were collected and the concentration of total protein were measured by BCA Protein Assay Kit according to its protocols. Four micrograms of total protein for each sample were loaded and TDP1 level were conducted by western blotting.

Setting [7] is: purified oximes and SMM leads, read-out: TDP1 IC50.
Setting [8] is: Table 7, ratio of IC50 TDP2 to TDP1.
The mark [9] stands for this setting: Table 7, HPLC-purified oxime leads, read-out: TDP2 IC50.
Setting [10] is: purified oximes, read-out: TDP2 IC50.
Where [11] appears, read: Table 8, lead compounds with different linkers, read-out: TDP1 IC50.
Setting [12] is: Table 8, ratio of IC50 TDP2 to TDP1.
[13] abbreviates: Table 8, lead compounds with different linkers, read-out: TDP2 IC50.
[14] abbreviates: Table 9, fluorosulfates and sulfonyl fluorides, read-out: TDP1 IC50.
The mark [15] stands for this setting: Table 9, fluorosulfates and sulfonyl fluorides, read-out: TDP2 IC50.

The values below come from patent publication US20250011330A1, “Imidazo[1,2- a]pyrazine and Imidazo[1,2- a]pyridine Based Tyrosyl-DNA Phosphodiesterase I (TDP1) Inhibitors” (The USA, As Represented by the Secretary, Department of …, priority 2021, published 2025).

Like-named read-outs stand apart in the source and are kept apart here.

T1 sequence (Q9NUW8 whole entry): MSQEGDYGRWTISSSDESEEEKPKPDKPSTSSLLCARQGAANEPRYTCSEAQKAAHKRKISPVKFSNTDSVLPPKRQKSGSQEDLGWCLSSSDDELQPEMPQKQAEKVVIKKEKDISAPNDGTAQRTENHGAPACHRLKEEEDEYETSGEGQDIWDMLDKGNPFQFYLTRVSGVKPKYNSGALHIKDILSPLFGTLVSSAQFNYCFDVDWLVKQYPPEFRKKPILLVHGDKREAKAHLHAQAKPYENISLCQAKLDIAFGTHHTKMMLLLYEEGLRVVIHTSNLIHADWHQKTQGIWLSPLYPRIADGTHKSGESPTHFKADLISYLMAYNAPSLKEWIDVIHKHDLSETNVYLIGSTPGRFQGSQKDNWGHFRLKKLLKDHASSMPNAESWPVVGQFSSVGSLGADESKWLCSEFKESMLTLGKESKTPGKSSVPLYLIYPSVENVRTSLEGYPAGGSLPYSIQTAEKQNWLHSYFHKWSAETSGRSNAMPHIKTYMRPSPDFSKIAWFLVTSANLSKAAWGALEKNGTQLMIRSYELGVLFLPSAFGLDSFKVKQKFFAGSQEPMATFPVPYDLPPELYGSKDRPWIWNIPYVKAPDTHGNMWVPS
T2 sequence (O95551 whole entry, species assumed): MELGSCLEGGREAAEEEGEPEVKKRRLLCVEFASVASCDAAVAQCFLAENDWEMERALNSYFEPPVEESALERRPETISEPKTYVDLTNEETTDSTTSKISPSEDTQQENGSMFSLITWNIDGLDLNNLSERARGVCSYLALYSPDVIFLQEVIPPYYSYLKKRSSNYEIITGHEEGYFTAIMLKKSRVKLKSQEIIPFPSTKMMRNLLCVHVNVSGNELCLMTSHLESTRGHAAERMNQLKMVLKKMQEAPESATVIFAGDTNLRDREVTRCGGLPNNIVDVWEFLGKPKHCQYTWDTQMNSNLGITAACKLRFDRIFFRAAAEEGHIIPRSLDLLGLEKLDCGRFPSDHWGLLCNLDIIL

In the case of `N#Cc1ccc(-c2ccc(C=NOCc3ccc4nc(-c5ccccc5)c(Nc5ccc(C(=O)O)cc5)n4c3)cc2)nc1` [Compound 105-D1, 4-((6-((((4-(5-cyanopyridin-2-yl)benzylidene)amino)oxy)methyl)-2-phenylimidazo[1,2-a]pyridin-3-yl)amino)benzoic acid], on TDP1 [1], the inhibition (in general, how much of the control response was suppressed) at 100 µM was above 90%.
In the case of `Cc1cncc(Oc2ccc(C=NOCc3ccc4nc(-c5ccccc5)c(Nc5ccc(C(=O)O)cc5)n4c3)cc2)n1` [Compound 105-P3, 4-((6-((((4-((6-methylpyrazin-2-yl)oxy)benzylidene)amino)oxy)methyl)-2-phenylimidazo[1,2-a]pyridin-3-yl)amino)benzoic acid], the IC50 – broadly, the concentration at which inhibition is half-maximal – at TDP1 [2] (setting [7]) was above 100 µM. Moreover, the inhibition at 100 µM at TDP1 [1] was above 90%.
As for `O=C(O)c1ccc(Nc2c(-c3ccc(CON=Cc4ccc(N5CCCC5=O)cc4)cc3)nc3cc(-c4ccccc4)ccn23)cc1` [Compound 106-B7, 4-((2-(4-((((4-(2-oxopyrrolidin-1-yl)benzylidene)amino)oxy)methyl)phenyl)-7-phenylimidazo[1,2-a]pyridin-3-yl)amino)benzoic acid], the TDP1 inhibition result on TDP1 [1] is “good inhibition”.
In turn, `N#Cc1ccc(-c2ccc(C=NOCc3ccc(-c4nc5cc(-c6ccccc6)ccn5c4Nc4ccc(C(=O)O)cc4)cc3)cc2)nc1` [Compound 106-D1, 4-((2-(4-((((4-(5-cyanopyridin-2-yl)benzylidene)amino)oxy)methyl)phenyl)-7-phenylimidazo[1,2-a]pyridin-3-yl)amino)benzoic acid] yielded an inhibition at 100 µM on TDP1 [1] above 90%.
Regarding `O=C(O)c1ccc(Nc2c(-c3ccc(CON=Cc4ccc(-c5cnccn5)cc4)cc3)nc3cc(-c4ccccc4)ccn23)cc1` [Compound 106-E6, 4-((7-phenyl-2-(4-((((4-(pyrazin-2-yl)benzylidene)amino)oxy)methyl)phenyl)imidazo[1,2-a]pyridin-3-yl)amino)benzoic acid], the TDP1 inhibition entry on TDP1 [1] was “good inhibition”.
On to `O=C(O)c1ccc(Nc2c(-c3ccc(CON=Cc4ccc(-c5ccccc5)cc4)cc3)nc3cc(-c4ccccc4)ccn23)cc1` [Compound 106-M10, 4-((2-(4-(((([1,1′-biphenyl]-4-ylmethylene)amino)oxy)methyl)phenyl)-7-phenylimidazo[1,2-a]pyridin-3-yl)amino)benzoic acid], for which the TDP1 inhibition result on TDP1 [1] is on record as “poor inhibition”.
For the molecule `Cc1cncc(Oc2ccc(C=NOCc3ccc(-c4nc5cc(-c6ccccc6)ccn5c4Nc4ccc(C(=O)O)cc4)cc3)cc2)n1` [Compound 106-P3, 4-((2-(4-((((4-((6-methylpyrazin-2-yl)oxy)benzylidene)amino)oxy)methyl)phenyl)-7-phenylimidazo[1,2-a]pyridin-3-yl)amino)benzoic acid], the inhibition at 100 µM at TDP1 [1] was above 90%.
With `O=C(O)c1ccc(Nc2c(-c3ccc(CO/N=C/c4ccc(-c5cnccn5)cc4)cc3)nc3cc(-c4ccccc4)ccn23)cc1` [XZ702, (E)-4-((7-Phenyl-2-(4-((((4-(pyrazin-2-yl)benzylidene)amino)oxy)methyl)phenyl)imidazo[1,2-a]pyridin-3-yl)amino)benzoic acid], the “FC (fold change)” value on TDP1 [2] (setting [8]) turned out to be 3. The IC50 is 3.1 ± 0.5 µM on TDP1 [2] (setting [7]), 8.8 ± 2.9 µM at TDP2 [3] (setting [9]) and 8.8 ± 2.9 µM at TDP2 [3] (setting [10]). The synergy with camptothecin result in test [4] is given as “exhibit synergy with camptothecin”. Besides, the TDP2 degrading activity result on TDP2 [5] is listed as “exhibit TDP2 degrading activity”.
`O=C(O)c1ccc(Nc2c(-c3ccc(CO/N=C/c4ccc(N5CCCC5=O)cc4)cc3)nc3cc(-c4ccccc4)ccn23)cc1` [XZ703, (E)-4-((2-(4-((((4-(2-Oxopyrrolidin-1-yl)benzylidene)amino)oxy)methyl)phenyl)-7-phenylimidazo[1,2-a]pyridin-3-yl)amino)benzoic acid]: on TDP1 [2] (setting [8]), the “FC (fold change)” value came out at 1. Besides, the IC50 was around 10 µM on TDP1 [2] (setting [7]), 10.9 ± 1.1 µM on TDP2 [3] (setting [9]) and around 10 µM on TDP2 [3] (setting [10]). At TDP2 [5], the TDP2 degrading activity result is reported as “exhibit TDP2 degrading activity”.
As for `N#Cc1ccc(-c2ccc(Cn3cc(-c4ccc(-c5nc6ccccn6c5Nc5ccc(C(=O)O)cc5)cc4)nn3)cc2)nc1` [XZ719, 4-((2-(4-(1-(4-(5-Cyanopyridin-2-yl)benzyl)-1H-1,2,3-triazol-4-yl)phenyl)imidazo[1,2-a]pyridin-3-yl)amino)benzoic acid], the results for the 50% inhibitory concentration (IC50) on TDP1 [2] (setting [11]) and at TDP2 [3] (setting [13]) were 21.6 ± 5 µM and 62.4 ± 18.6 µM, respectively. For the same molecule, the “FC (fold change)” value on TDP1 [2] (setting [12]) is on record as 3. Further, the synergy with camptothecin entry in test [4] is “exhibit synergy with camptothecin”. The TDP2 degrading activity result on TDP2 [5] was “exhibit TDP2 degrading activity”.
With `N#Cc1ccc(-c2ccc(Cn3cc(-c4ccc5nc(-c6ccccc6)c(Nc6ccc(C(=O)O)cc6)n5c4)nn3)cc2)nc1` [XZ723, 4-((6-(1-(4-(5-Cyanopyridin-2-yl)benzyl)-1H-1,2,3-triazol-4-yl)-2-phenylimidazo[1,2-a]pyridin-3-yl)amino)benzoic acid], the IC50 at TDP1 [2] (setting [11]) was 66.4 ± 3.7 µM; on TDP2 [3] (setting [13]) it was 69.1 ± 11.8 µM. On TDP1 [2] (setting [12]), the “FC (fold change)” value amounted to 1. Moreover, at TDP2 [5], the TDP2 degrading activity result is recorded as “exhibit TDP2 degrading activity”.
On to `O=C(O)c1ccc(Nc2c(-c3ccccc3OS(=O)(=O)F)nc3cc(-c4ccccc4)ccn23)cc1` [XZ730, 4-((2-(2-((Fluorosulfonyl)oxy)phenyl)-7-phenylimidazo[1,2-a]pyridin-3-yl)amino)benzoic acid], for which, at TDP1 [2], the IC50 is 17.8 µM; the “inhibition of TDP1, primary screen” value was “inhibition”; the “selectivity compared with TDP2, secondary screen” value worked out at 2 fold; the “inhibition, secondary screen” value is given as “μM inhibition”. For the same molecule, at TDP2 [3], it took 39.5 µM to reach half-maximal inhibition (IC50) and the “inhibition of TDP2, primary screen” value was “inhibition”. For the same molecule, at TDP1 [6] (FIG. 39), the “TDP1 degradation by covalent inhibitors” value is given as “degrade TDP1”. Further, the TDP1 degrading activity result at TDP1 [6] (list in description) is reported as “exhibit TDP1 degrading activity”. Besides, at TDP2 [5], the TDP2 degrading activity result was “exhibit TDP2 degrading activity”.
For the molecule `O=C(O)c1ccc(N(c2c(-c3ccccc3OS(=O)(=O)F)nc3cc(-c4ccccc4)ccn23)S(=O)(=O)F)cc1` [XZ731, 4-((Fluorosulfonyl)(2-(2-((fluorosulfonyl)oxy)phenyl)-7-phenylimidazo[1,2-a]pyridin-3-yl)amino)benzoic acid], on TDP1 [2], the “inhibition of TDP1, primary screen” value is listed as “inhibition”; the “selectivity compared with TDP2, secondary screen” value worked out at 2 fold; the “inhibition, secondary screen” value was “μM inhibition”. Further, the IC50 at TDP1 [2] (setting [14]) amounted to 22.7 µM. In addition, the “inhibition of TDP1, secondary screen” value at TDP1 [2] (room temperature, preincubation 10 minutes) is reported as “no inhibition”. In addition, on TDP2 [3], the “inhibition of TDP2, primary screen” value was “inhibition”. For the same molecule, the IC50 on TDP2 [3] (setting [15]) is 45.5 µM. The TDP2 degrading activity result at TDP2 [5] is “exhibit TDP2 degrading activity”.
As to `O=C(O)c1ccc(Nc2c(-c3ccccc3)nc3ccc(OS(=O)(=O)F)cn23)cc1` [XZ732, 4-((6-((Fluorosulfonyl)oxy)-2-phenylimidazo[1,2-a]pyridin-3-VA)amino)benzoic acid], the IC50 is above 100 µM at TDP1 [2] (setting [14]) and 65.8 µM on TDP2 [3] (setting [15]). In addition, the “inhibition of TDP2, primary screen” value against TDP2 [3] was “inhibition”. Moreover, the TDP2 degrading activity result on TDP2 [5] is reported as “exhibit TDP2 degrading activity”.
